Assay results from patent US8735414B2 (priority 2009, dated 2014).

What was measured:
[1] = test system: bicistronic HCV replicon (replicon RNA, GenBank Accession No. AJ242654); test: HCV Replicon Assay; format: cell-based; details: Hepatitis C virus, 72 h, read-out: Replicon IC50

| SMILES | IC50 [1] [nM] | melting point [°C] |
| --- | --- | --- |
| CCc1cc2c(cc1F)c(C#N)c(-c1ccc(S(=O)(=O)N[C@@H](C)C(F)(F)F)c(C)n1)n2-c1ccccn1 [compound 887, 6-[3-cyano-6-ethyl-5-fluoro-1-(pyridin-2-yl)-1H-indol-2-yl]-2-methyl-N-[(2S)-1,1,1-trifluoropropan-2-yl]pyridine-3-sulfonamide] | < 500 | 219 to 224 |
| C[C@H](NS(=O)(=O)c1cnc(-c2c(C#N)c3ccc(OC(F)F)cc3n2C2CCCC2)nc1)C1CC1 [compound 209, 2-[3-cyano-1-cyclopentyl-6-(difluoromethoxy)-1H-indol-2-yl]-N-[(1S)-1-cyclopropylethyl]pyrimidine-5-sulfonamide] | < 500 | 183 to 185 |
| Cc1cc2c(cc1Cl)c(C(N)=O)c(-c1ccc(S(=O)(=O)N[C@H](C)C(F)(F)F)cn1)n2C1CCC1 [compound 735, 5-chloro-1-cyclobutyl-6-methyl-2-(5-{[(2R)-1,1,1-trifluoropropan-2-yl]sulfamoyl}pyridin-2-yl)-1H-indole-3-carboxamide] | < 500 | 208 to 210 |
| C[C@H](NS(=O)(=O)c1cnc(-c2c(C#N)c3cc(F)ccc3n2C2CCCCC2)nc1)C(F)(F)F [compound 393, 2-(3-cyano-1-cyclohexyl-5-fluoro-1H-indol-2-yl)-N-[(2S)-1,1,1-trifluoropropan-2-yl]pyrimidine-5-sulfonamide] | < 500 | 236 to 238 |
| Cc1c(F)cc2c(c1F)c(C#N)c(-c1ccc(S(=O)(=O)N[C@@H](C)C(F)(F)F)cn1)n2C1CCCC1 [compound 559, 6-(3-cyano-1-cyclopentyl-4,6-difluoro-5-methyl-1H-indol-2-yl)-N-[(2S)-1,1,1-trifluoropropan-2-yl]pyridine-3-sulfonamide] | < 500 | 218 to 224 |
| Cc1ccc2c(C#N)c(-c3ccc(S(=O)(=O)NC(CF)CF)cn3)n([C@@H]3CCOC3)c2c1 [compound 54, 6-{3-cyano-6-methyl-1-[(3R)-tetrahydrofuran-3-yl]-1H-indol-2-yl}-N-(1,3-difluoropropan-2-yl)pyridine-3-sulfonamide] | < 500 | 152 to 153 |
| CCc1cc2c(cc1F)c(C#N)c(-c1ccc(S(=O)(=O)N[C@@H](C)C(F)(F)F)cn1)n2-c1ccc(OC)cc1 [compound 1005, 6-[3-cyano-6-ethyl-5-fluoro-1-(4-methoxyphenyl)-1H-indol-2-yl]-N-[(2S)-1,1,1-trifluoropropan-2-yl]pyridine-3-sulfonamide] | < 500 | 261 to 266 |
| CC(C)n1c(-c2ccc(S(=O)(=O)NC(CF)CF)cn2)c(C#N)c2ccc(OC(F)(F)F)cc21 [compound 69, 6-[3-cyano-1-(propan-2-yl)-6-(trifluoromethoxy)-1H-indol-2-yl]-N-(1,3-difluoropropan-2-yl)pyridine-3-sulfonamide] | < 500 | 116 to 117 |
| CCc1cc2c(cc1F)c(C(N)=O)c(-c1ccc(S(=O)(=O)NC(C)(C)C)cn1)n2-c1ccccc1 [compound 1109, 2-[5-(tert-butylsulfamoyl)pyridin-2-yl]-6-ethyl-5-fluoro-1-phenyl-1H-indole-3-carboxamide] | < 500 | 237.9 to 238.9 |
| CCc1cc2c(cc1F)c(C(N)=O)c(-c1ccc(S(=O)(=O)N[C@@H](C)C(F)(F)F)cn1)n2-c1ccc(F)cn1 [compound 981, 6-ethyl-5-fluoro-1-(5-fluoropyridin-2-yl)-2-(5-{[(2S)-1,1,1-trifluoropropan-2-yl]sulfamoyl}pyridin-2-yl)-1H-indole-3-carboxamide] | < 500 | 200 to 204 |
| Cc1cc2c(cc1F)c(C(=O)O)c(-c1ccc(S(=O)(=O)NC3(C(F)(F)F)CC3)cn1)n2C1CCCCC1 [compound 835, 1-cyclohexyl-5-fluoro-6-methyl-2-(5-{[1-(trifluoromethyl)cyclopropyl]sulfamoyl}pyridin-2-yl)-1H-indole-3-carboxylic acid] | < 500 | 205 to 213 |
| Cc1cc2c(cc1F)c(C#N)c(-c1ccc(S(=O)(=O)N[C@@H](C)C(F)(F)F)cn1)n2-c1nncs1 [compound 977, 6-[3-cyano-5-fluoro-6-methyl-1-(1,3,4-thiadiazol-2-yl)-1H-indol-2-yl]-N-[(2S)-1,1,1-trifluoropropan-2-yl]pyridine-3-sulfonamide] | < 500 | 232 to 240 |
| Cc1cc2c(cc1F)c(C#N)c(-c1ncc(S(=O)(=O)N[C@@H](C)C(F)(F)F)cc1C)n2C1CCCC1 [compound 837, 6-(3-cyano-1-cyclopentyl-5-fluoro-6-methyl-1H-indol-2-yl)-5-methyl-N-[(2S)-1,1,1-trifluoropropan-2-yl]pyridine-3-sulfonamide] | < 500 | 237 to 242 |
| CC(=O)c1sccc1-n1c(-c2ccc(S(=O)(=O)N[C@@H](C)C(F)(F)F)cn2)c(C#N)c2cc(F)c(C)cc21 [compound 1055, 6-[1-(2-acetylthiophen-3-yl)-3-cyano-5-fluoro-6-methyl-1H-indol-2-yl]-N-[(2S)-1,1,1-trifluoropropan-2-yl]pyridine-3-sulfonamide] | 500 to 2000 | 208.7 to 212.4 |
| C[C@H](NS(=O)(=O)c1ccc(-c2c(C#N)c3cc(CC(F)F)ccc3n2C2CCC2)nc1)C(F)(F)F [compound 702, 6-[3-cyano-1-cyclobutyl-5-(2,2-difluoroethyl)-1H-indol-2-yl]-N-[(2S)-1,1,1-trifluoropropan-2-yl]pyridine-3-sulfonamide] | < 500 | 143 to 147 |
| CC(C)NS(=O)(=O)c1cnc(-c2c(C#N)c3ccc(C4CC4)cc3n2C2CCCC2)nc1 [compound 125, 2-(3-cyano-1-cyclopentyl-6-cyclopropyl-1H-indol-2-yl)-N-(propan-2-yl)pyrimidine-5-sulfonamide] | < 500 | 211 to 212 |
| C[C@H](NS(=O)(=O)c1ccc(-c2c(C#N)c3cc(Cl)ccc3n2-c2ccccc2)nc1)C(F)(F)F [compound 441, 6-(5-chloro-3-cyano-1-phenyl-1H-indol-2-yl)-N-[(2S)-1,1,1-trifluoropropan-2-yl]pyridine-3-sulfonamide] | < 500 | 210 to 212 |
| N#Cc1c(-c2ncc(S(=O)(=O)NC(CF)CF)cn2)n(C2CCCCC2)c2ccc(F)cc12 [compound 527, 2-(3-cyano-1-cyclohexyl-5-fluoro-1H-indol-2-yl)-N-(1,3-difluoropropan-2-yl)pyrimidine-5-sulfonamide] | < 500 | 250 to 253 |
| CCc1cc2c(cc1F)c(C#N)c(-c1ccc(S(=O)(=O)N[C@H](C)C(F)(F)F)cn1)n2C1CCCC1 [compound 632, 6-(3-cyano-1-cyclopentyl-6-ethyl-5-fluoro-1H-indol-2-yl)-N-[(2R)-1,1,1-trifluoropropan-2-yl]pyridine-3-sulfonamide] | < 500 | 205.5 to 206 |
| CCc1cc2c(cc1F)c(C#N)c(-c1ccc(S(=O)(=O)NC(C)(C)C)cn1)n2-c1ncccc1F [compound 900, N-tert-butyl-6-[3-cyano-6-ethyl-5-fluoro-1-(3-fluoropyridin-2-yl)-1H-indol-2-yl]pyridine-3-sulfonamide] | 500 to 2000 | 200 to 203 |
| CC(C)(C)NS(=O)(=O)c1ccc(-c2c(C#N)c3cc(F)ccc3n2C2CCC2)nc1 [compound 9, N-tert-butyl-6-(3-cyano-1-cyclobutyl-5-fluoro-1H-indol-2-yl)pyridine-3-sulfonamide] | < 500 | 181 to 185 |
